According to paper PMC9825896, “Discovery of an L‐like Configuration for 3’‐Fluoro‐5’‐norcarbonucleoside Phosphonates as Potent Anti‐HIV Agents” (Chemmedchem, 2022):
Like-named read-outs stand apart in the source and are kept apart here.

Legend:
HIV‐1 LAI = assay: Anti-HIV-1 activity in T CD4+ H9 cells, LAI reference strain; type: cell-based; conditions: Human immunodeficiency virus 1, mean from three experiments
Method: (§1) Peripheral blood mononuclear cells (PBMC) from healthy donors were isolated and stimulated for 3 days with […] of phytohemagglutinin‐P (PHA‐P, Sigma) and 5 IU/mL of recombinant human interleukin‐2 (rHuIL‐2, Roche). PBMC were growth under CO2 in a humid atmosphere at 37 °C in RPMI‐1640 GlutaMAX medium supplemented with antibiotics (penicillin, streptomycin, neomycin), 10 % fetal calf serum (FCS, previously inactivated by heat) and 10 UI/mL of rHuIL‐2. The HIV‐1 LAI strain was previously described.[19] Resistant viral strains are from the NIH AIDS Research & Reference Reagent Program (HIV‐1–52534‐2, HIV‐1–56252‐1, HIV‐1–71361‐1, and HIV‐1–7324‐1) carry mutations in RT.[16]
(§2) PHA‐P activated PBMCs (1.5×10^5 cells) were pre‐treated for 30 min by increasing concentrations of the various compounds to be tested and then infected with […] infectious tissue culture doses 50 % (TCID50) of the HIV‐1‐LAI. Supernatants were collected at day 7 post infection and stored at ‐ 20 °C. Viral replication was measured by quantifying reverse transcriptase activity in cell culture supernatants by the use of Lenti kit RT (Cavidi). Cytotoxicity of the compounds was evaluated in uninfected PHA‐P PBMC by MTT assay (Promega) on day 7. Experiments were performed in triplicate and repeated with another blood donors. Data analyses were performed using SoftMax® Pro 4.6 software (Molecular Devices). Percent of inhibition of RT activity or cell viability were plotted versus compound concentration and fitted with quadratic curves to determine 50 % effective concentration (EC50) and 50 % cytotoxic concentration (CC50). The viral resistant strains were amplified and the viral stocks titrated using cells of the H9 line.[20] More specifically, with regard to the antiviral test, the cells were distributed in the wells of 96‐well microplates at the rate of 50,000 cells per well. They were then pretreated for 30 minutes with increasing concentrations of the various compounds to be tested and then infected with 125 TCID50 of the various resistant strains. Seven and 14 days after infection, culture supernatants were collected and frozen at −20 ° C until measurement of viral replication via quantification of the enzymatic activity of the TI. The EC50 was calculated as previously described. A possible cytotoxicity of the molecules towards the cells of the H9 line was assessed by microscopic observation throughout the cell cultures.

HIV‐1‐7324‐1 = assay: Anti-HIV-1 activity in T CD4+ H9 cells, resistant strain 7324-1; type: cell-based; conditions: Human immunodeficiency virus 1; strain 7324‐1, T CD4+ H9 cells, mean from three experiments
Method: as §1, §2

HIV‐1‐71361‐1 = assay: Anti-HIV-1 activity in T CD4+ H9 cells, resistant strain 71361-1; type: cell-based; conditions: Human immunodeficiency virus 1, H9
Method: as §1, §2

[1] = tested on: human peripheral blood mononuclear cells (PBMC); design: method as in earlier work; conditions: ref 4b, cited from earlier work; for CC50: read-out: CC50, cytotoxic concentration of drug required to reduce cell growth by 50 %
HIV‐1 LAI strain [2] = conditions: ref 4b, cited from earlier work; for EC50: read-out: EC50, effective concentration of drug required to reduce viral replication by 50 %, HIV-1 LAI in human PBMC; for SI = CC50/EC50: HIV-1 LAI in PBMC
HIV‐1‐56252‐1 = assay: Anti-HIV-1 activity in T CD4+ H9 cells, resistant strain 56252-1; type: cell-based; conditions: Human immunodeficiency virus 1; strain 56252‐1, T CD4+ H9 cells, mean from three experiments
Method: as §1, §2

HIV‐1‐52534‐2 = assay: Anti-HIV-1 activity in T CD4+ H9 cells, resistant strain 52534-2; type: cell-based; conditions: strain 52534‐2, T CD4+ H9 cells; for EC50: Human immunodeficiency virus 1, mean from three experiments
Method: as §1, §2

HIV‐1 LAI strain [3] = assay: Anti-HIV-1 LAI activity in PHA-P activated PBMC (RT activity in supernatants); type: cell-based; conditions: for EC50: read-out: EC50, effective concentration of drug required to reduce viral replication by 50 %
Method: as §1, §2

[4] = tested on: human peripheral blood mononuclear cells (PBMC); assay: Cytotoxicity in uninfected PHA-P PBMC by MTT assay; type: cell-based
Method: as §1, §2

[5] = Cytotoxicity in uninfected PHA-P PBMC by MTT assay; type: cell-based, human; conditions: human
Method: as §1, §2

[6] = Human immunodeficiency virus 1, PBMC, 168 h
[7] = Human immunodeficiency virus 1, 168 h, HIV-1 LAI in human PBMC, day 7 post infection, mean from 3 blood donors
[8] = uninfected PBMC, MTT, day 7, mean from 3 blood donors, read-out: CC50, cytotoxic concentration of drug required to reduce cell growth by 50 %

Nc1ncnc2c1ncn2[C@H]1C=C(F)[C@@H](OCP(=O)(O)O)C1 (racemic) [(±)‐1]
EC50 (HIV‐1 LAI): 660 nM
EC50 (HIV‐1‐7324‐1): 170 nM
EC50 (HIV‐1‐71361‐1): 3730 nM
CC50 [1]: ≥ 10000 nM
cytotoxicity (in words) [1]: without additional cytotoxicity
EC50 (HIV‐1 LAI strain [2]): 880 nM
EC50 (HIV‐1‐56252‐1): 10000 nM
EC50 (HIV‐1‐52534‐2): ≥ 10000 nM

CC(C)(C)C(=O)OCOP(=O)(CO[C@@H]1C[C@H](n2cnc3c(N)ncnc32)C=C1F)OCOC(=O)C(C)(C)C [(−)‐9, bis‐(Pivaloyloxymethyl)‐((1’R,4’S)‐4‐(6‐amino‐9H‐purin‐9‐yl)‐2‐fluorocyclopent‐2‐en‐1‐yl)oxymethyl‐phosphonate]
EC50 (HIV‐1 LAI): 110 nM
EC50 (HIV‐1‐7324‐1): 10 nM
EC50 (HIV‐1‐71361‐1): 110 nM
anti‐HIV‐1 activity, fold greater than that of the D‐like enantiomer (HIV‐1 LAI strain [3]; HIV-1 LAI in PBMC, EC50 ratio versus D-like bis(POM) prodrug): 8 fold
anti‐HIV‐1 activity, fold greater than Tenofovir (HIV‐1 LAI strain [3]; HIV-1 LAI in PBMC, EC50 ratio versus Tenofovir): 17 fold
EC50 (HIV‐1 LAI strain [3]; [6]): 63 nM
EC50 (HIV‐1‐56252‐1): 90 nM
cytotoxicity (in words) [4]: some cytotoxicity
CC50 at 7 days [5]: 5200 nM
EC50 (HIV‐1‐52534‐2): 580 nM
antiviral activity (in words) (HIV‐1‐52534‐2): remains significantly active

Nc1ncnc2c1ncn2[C@@H]1C=C(F)[C@H](OCP(=O)(O)O)C1 [(−)‐1]
EC50 (HIV‐1 LAI): 330 nM
EC50 (HIV‐1‐7324‐1): 420 nM
EC50 (HIV‐1‐71361‐1): 900 nM
SI = CC50/EC50 (HIV‐1 LAI strain [3]; HIV-1 LAI in PBMC): ≥52.6
EC50 (HIV‐1 LAI strain [3]; [7]): 190 nM
EC50 (HIV‐1‐56252‐1): 690 nM
cytotoxicity (in words) ([4]; PBMC): No cytotoxicity
CC50 at 7 days [5, 8]: ≥ 10000 nM
EC50 (HIV‐1‐52534‐2): ≥ 10000 nM

Nc1ncnc2c1ncn2[C@H]1C=C(F)[C@@H](OCP(=O)(O)O)C1 [(+)‐1]
SI = CC50/EC50 (HIV‐1 LAI strain [3]; HIV-1 LAI in PBMC): ≥2.32
EC50 (HIV‐1 LAI strain [3]; [7]): 4300 nM
cytotoxicity (in words) ([4]; PBMC): No cytotoxicity
CC50 at 7 days [5, 8]: ≥ 10000 nM

CC(C)(C)C(=O)OCOP(=O)(CO[C@H]1C[C@@H](n2cnc3c(N)ncnc32)C=C1F)OCOC(=O)C(C)(C)C [(+)‐9, bis‐(Pivaloyloxymethyl)‐((1’S,4’R)‐4‐(6‐amino‐9H‐purin‐9‐yl)‐2‐fluorocyclopent‐2‐en‐1‐yl)oxymethyl‐phosphonate]
EC50 (HIV‐1 LAI): 1850 nM
EC50 (HIV‐1‐7324‐1): 240 nM
EC50 (HIV‐1‐71361‐1): 680 nM
EC50 (HIV‐1 LAI strain [3]; [6]): 510 nM
EC50 (HIV‐1‐56252‐1): 960 nM
CC50 at 7 days [5]: ≥ 10000 nM
EC50 (HIV‐1‐52534‐2): ≥ 10000 nM

C[C@H](Cn1cnc2c(N)ncnc21)OCP(=O)(O)O [(R)‐PMPA, reference compound]
EC50 (HIV‐1 LAI): 130 nM
EC50 (HIV‐1‐7324‐1): 100 nM
EC50 (HIV‐1‐71361‐1): 100 nM
CC50 [1]: ≥ 10000 nM
SI = CC50/EC50 (HIV‐1 LAI strain [2]): ≥9.1
SI = CC50/EC50 (HIV‐1 LAI strain [2]; listed as Tenofovir): 9.1
EC50 (HIV‐1 LAI strain [2]): 1100 nM
EC50 (HIV‐1‐56252‐1): 1650 nM
EC50 (HIV‐1‐52534‐2): 6100 nM
